# Test results: US10071966B2, “Drug for inhibiting aggregation of proteins involved in diseases linked to protein aggregation and/or neurodegenerative diseases” (Ludwig-Maximilians-Universität München, priority 2008, dated 2018)
# Entries after “also recorded” stand apart in the source; their conditions may differ. Read-outs that look alike come from different tables or passages of the source.
# Key:
# [1] = system: PrPSc in brain (RML scrapie)
# [2] = system: PrP^Sc accumulation in brain (RML scrapie); type: in vivo, C57BL/6 mice; conditions: brain at 120 dpi
# RML scrapie [3] = type: in vivo, C57Bl6 mice; conditions: i.c. RML scrapie
# RML scrapie [4] = type: in vivo, C57BL/6 mice
# [5] = Pharmacokinetic analysis of anle138b, compound in brain and serum by LC-MS (Example 15); conditions: single dose, non-infected mice
# [6] = system: PrPSc in spleen (RML scrapie); type: in vivo, C57Bl6 mice; conditions: i.p. RML scrapie; 25 μL 100 mM i.p. 14 days then 50 mg/kg oral; day 35 post infection
# RML scrapie [7] = type: in vivo, C57BL/6 mice; conditions: different times and schedules of treatment; p<0.01
# [8] = system: PrP^Sc accumulation in spleen (RML scrapie); type: in vivo, C57BL/6 mice; conditions: i.p. infection; 34 days of 1 mg compound per day in DMSO+peanut butter; spleen at 35 dpi
# α-synuclein = α-synuclein (Homo sapiens, UniProt P37840); assay: Inhibition of the formation of α-synuclein aggregates (intermediate II oligomers), confocal single molecule spectroscopy (Example 16); type: biochemical
# [9] = i.c. RML scrapie, treatment from day 80
# [10] = 5 mg per day orally in DMSO+peanut butter from 80 or 120 dpi
smiles,measurement,setting,value
"Brc1cccc(-c2cc(-c3ccc4c(c3)OCO4)n[nH]2)c1 [anle138b, 3-(1,3-Benzodioxol-5-yl)-5-(3-bromophenyl)-1H-pyrazole]","Inhibition [%] of PrPSc accumulation in brain, protocol b","[1]; 0.84 mg per day i.p. 14 days from 80 dpi then 2x5 days 1 mg by gavage, brain at 106 dpi, relative to DMSO-treated (0%) and start of treatment (100%)",108%
same,change of relative PrPSc levels in brain compared to untreated control at day 80,[1]; [9],slighty decreased
same,pathological changes / apoptotic cells in cerebellar granule cell layer (H&E stained brain slices),[1]; [9],reduction of pathological changes
same,survival time until terminal stage of scrapie infection,"[1]; i.c. RML scrapie, treatment from day 80, two anle138b mice additionally fed compound in peanut butter day 109 to 136",longer survival times
same,"Inhibition [%] of PrPSc accumulation in brain, protocol a","[2]; 1 mg compound per day orally in DMSO+peanut butter from 80 dpi, relative to DMSO-treated (0%) and start of treatment (100%)",69%
same,"PrPSc accumulation in brain, dose dependence",[2]; different amounts orally in DMSO+peanut butter from 80 dpi,reduced PrP^Sc accumulation in brain in a dose-dependent manner
same,effect of treatment on survival time,RML scrapie [3]; daily i.p. for 14 days from day 80 post infection,significantly prolongs the survival times
same,"average survival time prolonged by, in comparison to DMSO vehicle group",RML scrapie [3]; i.p. 25 μL per day of 100 mM compound for 14 days from day 80 post infection,14.9 days
same,"PrPSc accumulation in brain (stained sections, brain homogenates)",RML scrapie [4]; [10],strongly reduced
same,apoptotic cells in the cerebellum (neuronal cell death),RML scrapie [4]; [10],inhibition of neuronal cell death
same,time for which weight loss is prevented,"RML scrapie [4]; 5 mg per day orally, treatment from 80 dpi onwards",~100 days
same,time for which weight loss is inhibited,"RML scrapie [4]; 5 mg per day orally, treatment from 120 dpi",~70 days
same,brain penetration,[5],good brain penetration
same,oral bioavailability,[5],good oral bioavailability
same,PrPSc deposits in spleen tissue (immunohistology),[6],reduced
same,splenic PrPSc level (immunoblot / dot blot) compared to vehicle-treated mice,[6],strong reduction in PrPSc levels; also recorded: decreases significantly
same,survival times after challenge with RML scrapie,RML scrapie [7],significantly prolonged the survival times
same,"Inhibition [%] of PrPSc accumulation in spleen, protocol c",[8],62%
FCCn1nc(-c2ccc3c(c2)OCO3)cc1-c1cccc(Br)c1 [sery363a],reduction of PrPC accumulation compared to DMSO-treated controls,[2]; 3 mg compound per day orally in DMSO+peanut butter from 80 dpi,35%
Nc1ccc(-c2cc(-c3cccc(Cl)c3)n[nH]2)cc1 [sery383],reduction of PrPC accumulation compared to DMSO-treated controls,[2]; 1 mg compound per day orally in DMSO+peanut butter from 80 dpi,30%
same,inhibition of alpha-synuclein aggregation,α-synuclein,highly active
same,Intermediate II (formation of intermediate II oligomers in comparison to controls without compound),"α-synuclein; compound 10 μM, aggregation induced by DMSO and 10 μM FeCl3",<5%
